Data from article PMC3527126 (Endocrine-related cancer, 2011).

Target: PKCδ (Homo sapiens, UniProt Q05655)
Assay: Omnia fluorescent
Type: biochemical

Sequence of PKCδ (Q05655 whole entry): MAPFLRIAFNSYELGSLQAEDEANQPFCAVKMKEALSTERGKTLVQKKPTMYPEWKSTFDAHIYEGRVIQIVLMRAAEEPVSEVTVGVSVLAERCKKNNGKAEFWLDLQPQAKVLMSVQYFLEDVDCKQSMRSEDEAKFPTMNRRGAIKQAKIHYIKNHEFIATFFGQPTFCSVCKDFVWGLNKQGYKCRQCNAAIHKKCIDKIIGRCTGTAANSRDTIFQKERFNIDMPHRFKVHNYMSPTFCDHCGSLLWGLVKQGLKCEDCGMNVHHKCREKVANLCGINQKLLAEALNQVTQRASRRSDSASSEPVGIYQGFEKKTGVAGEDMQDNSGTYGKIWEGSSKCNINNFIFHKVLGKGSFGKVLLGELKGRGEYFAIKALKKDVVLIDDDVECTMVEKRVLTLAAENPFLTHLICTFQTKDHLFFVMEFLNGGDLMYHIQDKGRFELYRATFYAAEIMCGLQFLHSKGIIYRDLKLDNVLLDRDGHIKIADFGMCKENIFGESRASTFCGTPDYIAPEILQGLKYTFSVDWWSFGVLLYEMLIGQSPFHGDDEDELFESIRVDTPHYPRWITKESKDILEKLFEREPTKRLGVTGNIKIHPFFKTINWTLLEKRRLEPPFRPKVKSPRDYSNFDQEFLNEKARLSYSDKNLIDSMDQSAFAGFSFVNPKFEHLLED

CC(=O)c1c(O)c(C)c(O)c(Cc2c(O)c3c(c(C(=O)/C=C/c4ccccc4)c2O)OC(C)(C)C=C3)c1O [rottlerin]
IC50: 200 nM
